Results: patent publication US20260356819A1, “OXOISOINDOLINYL-SUBSTITUTED […] DERIVATIVE AND USE THEREOF” (GLUETACS THERAPEUTICS (SHANGHAI) CO., LTD., priority 2023, published 2026)

Experiments:
Type in all cases: cell-based
Conditions in all cases: compounds at 50 nM and 500 nM
WEE1 = target: T1, WEE1 (Homo sapiens, UniProt P30291+Q96SW2); experiment: Western blot degradation of WEE1 in hPBMCs (24 h)
T1 construct: The supernatant was aspirated as the extracted total cell protein; endogenous in cells; host or cells: human peripheral blood mononuclear cells (hPBMCs)
Procedure, shortened: (§1)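 Thawed human PBMCs, 1×10^6 cells/mL; cpd 50 nM or 500 nM, 24 h; RIPA lysis, BCA, SDS-PAGE, NC transfer, immunoblot. Readout: grayscale/internal control → % remaining; degradation = 1 − remaining.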

IKZF1 = target: T2, IKZF1 (Homo sapiens, UniProt Q13422+Q96SW2); experiment: Western blot degradation of IKZF1 in hPBMCs (24 h)
T2 construct: The supernatant was aspirated as the extracted total cell protein; endogenous in cells; host or cells: human peripheral blood mononuclear cells (hPBMCs)
Procedure, shortened: as §1

IKZF2 = target: T3, IKZF2 (Homo sapiens, UniProt Q96SW2+Q9UKS7); experiment: Western blot degradation of IKZF2 in hPBMCs (24 h)
T3 construct: The supernatant was aspirated as the extracted total cell protein; endogenous in cells; host or cells: human peripheral blood mononuclear cells (hPBMCs)
Procedure, shortened: as §1

IKZF3 = target: T4, IKZF3 (Homo sapiens, UniProt Q96SW2+Q9UKT9); experiment: Western blot degradation of IKZF3 in hPBMCs (24 h)
T4 construct: The supernatant was aspirated as the extracted total cell protein; endogenous in cells; host or cells: human peripheral blood mononuclear cells (hPBMCs)
Procedure, shortened: as §1

CK1α = target: T5, CK1α (Homo sapiens, UniProt P48729+Q96SW2); experiment: Western blot degradation of CK1α in hPBMCs (24 h)
T5 construct: The supernatant was aspirated as the extracted total cell protein; endogenous in cells; host or cells: human peripheral blood mononuclear cells (hPBMCs)
Procedure, shortened: as §1

GSPT1 = target: T6, GSPT1 (Homo sapiens, UniProt P15170+Q96SW2); experiment: Western blot degradation of GSPT1 in hPBMCs (24 h)
T6 construct: The supernatant was aspirated as the extracted total cell protein; endogenous in cells; host or cells: human peripheral blood mononuclear cells (hPBMCs)
Procedure, shortened: as §1

T2 sequence (Q13422 whole entry): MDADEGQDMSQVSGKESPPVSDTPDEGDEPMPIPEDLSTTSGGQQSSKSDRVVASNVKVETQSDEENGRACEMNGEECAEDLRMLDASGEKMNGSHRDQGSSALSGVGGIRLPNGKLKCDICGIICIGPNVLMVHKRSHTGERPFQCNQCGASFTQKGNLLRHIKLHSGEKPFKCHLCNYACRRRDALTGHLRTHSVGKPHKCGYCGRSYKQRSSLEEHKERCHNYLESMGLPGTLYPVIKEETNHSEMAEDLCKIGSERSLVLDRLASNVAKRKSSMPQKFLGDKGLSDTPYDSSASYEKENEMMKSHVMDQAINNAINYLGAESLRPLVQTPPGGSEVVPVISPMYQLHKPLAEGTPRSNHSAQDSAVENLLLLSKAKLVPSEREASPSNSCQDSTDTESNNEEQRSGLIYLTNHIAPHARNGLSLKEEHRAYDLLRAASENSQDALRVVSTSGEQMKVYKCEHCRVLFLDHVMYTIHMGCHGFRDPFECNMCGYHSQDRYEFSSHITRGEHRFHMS
T2 sequence (Q96SW2 whole entry): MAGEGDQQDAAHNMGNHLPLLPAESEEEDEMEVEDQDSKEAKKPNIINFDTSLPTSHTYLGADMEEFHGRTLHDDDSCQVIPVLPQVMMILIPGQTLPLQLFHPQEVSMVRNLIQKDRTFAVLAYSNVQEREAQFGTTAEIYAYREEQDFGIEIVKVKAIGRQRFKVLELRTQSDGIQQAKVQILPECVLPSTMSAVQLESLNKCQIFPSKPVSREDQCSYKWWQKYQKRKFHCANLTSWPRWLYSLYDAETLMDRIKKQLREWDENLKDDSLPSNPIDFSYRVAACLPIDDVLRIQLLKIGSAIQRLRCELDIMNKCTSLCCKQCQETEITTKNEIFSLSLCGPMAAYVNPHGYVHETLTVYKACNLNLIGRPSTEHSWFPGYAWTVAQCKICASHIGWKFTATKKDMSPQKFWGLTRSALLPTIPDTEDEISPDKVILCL
T2 sequence (Q16531 whole entry partner): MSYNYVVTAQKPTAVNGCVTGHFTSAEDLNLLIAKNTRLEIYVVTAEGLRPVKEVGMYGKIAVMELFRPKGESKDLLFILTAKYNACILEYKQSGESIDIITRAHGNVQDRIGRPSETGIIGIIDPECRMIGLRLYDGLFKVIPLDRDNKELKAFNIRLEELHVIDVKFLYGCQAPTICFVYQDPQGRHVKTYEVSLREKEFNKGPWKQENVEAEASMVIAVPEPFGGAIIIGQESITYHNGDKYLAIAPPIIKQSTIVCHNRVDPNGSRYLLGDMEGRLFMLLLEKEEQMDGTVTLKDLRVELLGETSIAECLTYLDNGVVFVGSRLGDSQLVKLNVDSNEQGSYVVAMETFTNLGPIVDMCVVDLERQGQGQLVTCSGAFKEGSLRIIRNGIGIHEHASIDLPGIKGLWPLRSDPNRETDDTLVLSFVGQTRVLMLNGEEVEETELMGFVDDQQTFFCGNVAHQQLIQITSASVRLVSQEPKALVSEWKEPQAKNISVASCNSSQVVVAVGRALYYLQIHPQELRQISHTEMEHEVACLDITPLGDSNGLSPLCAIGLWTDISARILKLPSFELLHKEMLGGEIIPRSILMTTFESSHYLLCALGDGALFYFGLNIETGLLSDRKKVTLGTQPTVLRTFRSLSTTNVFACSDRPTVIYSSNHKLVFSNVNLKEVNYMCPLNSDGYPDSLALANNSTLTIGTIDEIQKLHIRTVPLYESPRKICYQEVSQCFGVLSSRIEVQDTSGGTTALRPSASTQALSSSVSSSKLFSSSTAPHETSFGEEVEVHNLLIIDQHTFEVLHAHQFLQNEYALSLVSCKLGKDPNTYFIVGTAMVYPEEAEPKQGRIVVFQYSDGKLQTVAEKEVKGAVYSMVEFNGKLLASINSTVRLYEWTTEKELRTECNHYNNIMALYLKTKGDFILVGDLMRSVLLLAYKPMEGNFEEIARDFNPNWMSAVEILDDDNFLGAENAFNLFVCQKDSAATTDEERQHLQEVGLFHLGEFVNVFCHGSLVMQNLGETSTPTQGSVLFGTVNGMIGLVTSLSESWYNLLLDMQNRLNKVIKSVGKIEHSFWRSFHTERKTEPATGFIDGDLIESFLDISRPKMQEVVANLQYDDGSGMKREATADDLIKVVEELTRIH
T6 sequence (P15170 whole entry): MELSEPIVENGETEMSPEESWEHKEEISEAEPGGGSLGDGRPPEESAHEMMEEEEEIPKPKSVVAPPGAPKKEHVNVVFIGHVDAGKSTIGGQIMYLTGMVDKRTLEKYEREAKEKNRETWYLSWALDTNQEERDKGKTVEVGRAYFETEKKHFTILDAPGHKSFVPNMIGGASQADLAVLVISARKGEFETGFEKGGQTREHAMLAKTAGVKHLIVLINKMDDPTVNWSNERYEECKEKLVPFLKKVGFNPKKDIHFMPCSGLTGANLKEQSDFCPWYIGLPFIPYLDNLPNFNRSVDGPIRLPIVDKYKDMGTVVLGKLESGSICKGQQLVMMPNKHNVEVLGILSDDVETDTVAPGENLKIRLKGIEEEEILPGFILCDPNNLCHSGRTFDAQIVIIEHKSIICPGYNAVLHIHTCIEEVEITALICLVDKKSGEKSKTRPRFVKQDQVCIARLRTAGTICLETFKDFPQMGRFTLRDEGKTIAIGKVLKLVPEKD
T6 sequence (Q96SW2 whole entry): as the sequence (Q96SW2 whole entry) above
T6 sequence (Q16531 whole entry partner): as the sequence (Q16531 whole entry partner) above
T3 sequence (Q9UKS7 whole entry): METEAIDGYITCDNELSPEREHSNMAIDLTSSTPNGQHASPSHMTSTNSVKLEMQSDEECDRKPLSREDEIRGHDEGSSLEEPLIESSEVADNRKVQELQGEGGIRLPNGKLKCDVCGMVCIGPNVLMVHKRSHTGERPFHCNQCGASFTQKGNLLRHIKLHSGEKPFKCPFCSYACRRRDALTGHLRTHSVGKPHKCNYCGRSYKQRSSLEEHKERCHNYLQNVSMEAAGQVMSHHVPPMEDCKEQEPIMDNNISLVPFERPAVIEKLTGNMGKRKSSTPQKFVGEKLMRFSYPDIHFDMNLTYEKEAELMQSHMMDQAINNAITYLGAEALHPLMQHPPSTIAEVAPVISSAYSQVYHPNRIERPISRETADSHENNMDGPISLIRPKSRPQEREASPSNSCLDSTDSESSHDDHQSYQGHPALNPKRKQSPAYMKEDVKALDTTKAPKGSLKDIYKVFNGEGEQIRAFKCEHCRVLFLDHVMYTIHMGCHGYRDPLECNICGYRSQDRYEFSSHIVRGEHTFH
T3 sequence (Q96SW2 whole entry): as the sequence (Q96SW2 whole entry) above
T3 sequence (Q16531 whole entry partner): as the sequence (Q16531 whole entry partner) above
T1 sequence (P30291 whole entry): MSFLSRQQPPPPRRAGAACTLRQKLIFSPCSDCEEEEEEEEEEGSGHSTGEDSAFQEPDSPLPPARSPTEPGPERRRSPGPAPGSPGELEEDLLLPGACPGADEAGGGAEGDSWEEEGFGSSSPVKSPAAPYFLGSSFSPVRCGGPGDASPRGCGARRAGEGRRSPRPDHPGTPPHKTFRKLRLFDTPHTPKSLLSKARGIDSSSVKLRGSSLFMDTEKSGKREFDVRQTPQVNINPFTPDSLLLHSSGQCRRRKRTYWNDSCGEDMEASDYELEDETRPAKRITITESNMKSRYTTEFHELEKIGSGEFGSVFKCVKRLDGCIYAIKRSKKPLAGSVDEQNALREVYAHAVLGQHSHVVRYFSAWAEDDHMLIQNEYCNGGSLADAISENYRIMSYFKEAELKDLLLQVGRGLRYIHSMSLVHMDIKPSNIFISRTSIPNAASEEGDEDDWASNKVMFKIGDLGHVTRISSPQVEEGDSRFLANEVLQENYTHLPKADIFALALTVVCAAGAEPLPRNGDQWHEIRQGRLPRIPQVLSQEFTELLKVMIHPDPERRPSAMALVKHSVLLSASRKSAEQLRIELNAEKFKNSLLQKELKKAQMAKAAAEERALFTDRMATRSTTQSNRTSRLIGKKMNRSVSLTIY
T1 sequence (Q96SW2 whole entry): as the sequence (Q96SW2 whole entry) above
T1 sequence (Q16531 whole entry partner): as the sequence (Q16531 whole entry partner) above
T4 sequence (Q9UKT9 whole entry): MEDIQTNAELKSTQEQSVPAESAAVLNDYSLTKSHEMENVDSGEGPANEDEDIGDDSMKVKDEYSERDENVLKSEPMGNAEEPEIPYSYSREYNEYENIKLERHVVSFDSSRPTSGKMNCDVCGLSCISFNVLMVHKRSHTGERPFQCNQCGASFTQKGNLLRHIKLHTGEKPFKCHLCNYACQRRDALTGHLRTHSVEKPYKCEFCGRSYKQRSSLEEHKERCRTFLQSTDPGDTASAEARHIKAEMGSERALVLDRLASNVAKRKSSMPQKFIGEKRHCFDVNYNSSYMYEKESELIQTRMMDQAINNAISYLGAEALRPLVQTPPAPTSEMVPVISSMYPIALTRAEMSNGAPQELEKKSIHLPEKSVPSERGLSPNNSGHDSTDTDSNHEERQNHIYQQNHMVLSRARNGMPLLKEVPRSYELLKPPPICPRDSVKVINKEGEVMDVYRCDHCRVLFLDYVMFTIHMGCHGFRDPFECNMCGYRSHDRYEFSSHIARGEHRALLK
T4 sequence (Q96SW2 whole entry): as the sequence (Q96SW2 whole entry) above
T4 sequence (Q16531 whole entry partner): as the sequence (Q16531 whole entry partner) above

O=C1CCN(N2C(=O)c3ccc(CN4CCN(c5c(Cl)cncc5Cl)CC4)cc3C2=O)C(=O)N1 [GT-07038, 5-((4-(3,5-dichloropyridin-4-yl)piperazin-1-yl)methyl)-2-(2,4-dioxotetrahydropyrimidin-1(2H)-yl)isoindoline-1,3-dione]
WEE1 substrate protein remaining % (WEE1): A (0% ≤ substrate protein remaining % ≤80%) | IKZF1 substrate protein remaining % (IKZF1): A (0% ≤ substrate protein remaining % ≤80%) | IKZF2 substrate protein remaining % (IKZF2): A (0% ≤ substrate protein remaining % ≤80%) | IKZF3 substrate protein remaining % (IKZF3): A (0% ≤ substrate protein remaining % ≤80%) | CK1α substrate protein remaining % (CK1α): A (0% ≤ substrate protein remaining % ≤80%) | GSPT1 substrate protein remaining % (GSPT1): A (0% ≤ substrate protein remaining % ≤80%)

O=C1CCN(N2C(=O)c3ccc(CN4CCN(c5ccc(Cl)cn5)CC4)cc3C2=O)C(=O)N1 [GT-05350, 5-((4-(5-chloropyridin-2-yl)piperazin-1-yl)methyl)-2-(2,4-dioxotetrahydropyrimidin-1(2H)-yl)isoindoline-1,3-dione]
WEE1 substrate protein remaining % (WEE1): B (80%< substrate protein remaining % ≤100%) | IKZF1 substrate protein remaining % (IKZF1): B (80%< substrate protein remaining % ≤100%) | IKZF2 substrate protein remaining % (IKZF2): B (80%< substrate protein remaining % ≤100%) | IKZF3 substrate protein remaining % (IKZF3): B (80%< substrate protein remaining % ≤100%) | CK1α substrate protein remaining % (CK1α): B (80%< substrate protein remaining % ≤100%) | GSPT1 substrate protein remaining % (GSPT1): A (0% ≤ substrate protein remaining % ≤80%)

O=C1CCN(N2C(=O)c3ccc(CN4CC=C(c5cncc(Cl)c5)CC4)cc3C2=O)C(=O)N1 [GT-07491, 5-((5-chloro-3′,6′-dihydro-[3,4′-bipyridin]-1′ (2′H)-yl)methyl)-2-(2,4-dioxotetrahydropyrimidin-1(2H)-yl)isoindoline-1,3-dione]
WEE1 substrate protein remaining % (WEE1): A (0% ≤ substrate protein remaining % ≤80%) | IKZF1 substrate protein remaining % (IKZF1): B (80%< substrate protein remaining % ≤100%) | IKZF2 substrate protein remaining % (IKZF2): B (80%< substrate protein remaining % ≤100%) | IKZF3 substrate protein remaining % (IKZF3): B (80%< substrate protein remaining % ≤100%) | CK1α substrate protein remaining % (CK1α): B (80%< substrate protein remaining % ≤100%) | GSPT1 substrate protein remaining % (GSPT1): A (0% ≤ substrate protein remaining % ≤80%)

Cc1nc(N2CCN(Cc3ccc4c(c3)CN(N3CCC(=O)NC3=O)C4=O)CC2)c2c3c(sc2n1)CCCC3 [GT-08068, 1-(5-((4-(2-methyl-5,6,7,8-tetrahydrobenzo[4,5]thieno[2,3-d]pyrimidin-4-yl)piperazin-1-yl)methyl)-1-oxoisoindolin-2-yl)dihydropyrimidine-2,4(1H,3H)-dione]
WEE1 substrate protein remaining % (WEE1): B (80%< substrate protein remaining % ≤100%) | IKZF1 substrate protein remaining % (IKZF1): B (80%< substrate protein remaining % ≤100%) | IKZF2 substrate protein remaining % (IKZF2): A (0% ≤ substrate protein remaining % ≤80%) | IKZF3 substrate protein remaining % (IKZF3): B (80%< substrate protein remaining % ≤100%) | CK1α substrate protein remaining % (CK1α): A (0% ≤ substrate protein remaining % ≤80%) | GSPT1 substrate protein remaining % (GSPT1): B (80%< substrate protein remaining % ≤100%)

O=C1CCN(N2C(=O)c3ccc(CN4CCN(c5ccncc5Br)CC4)cc3C2=O)C(=O)N1 [GT-07163, 5-((4-(3-bromopyridin-4-yl)piperazin-1-yl)methyl)-2-(2,4-dioxotetrahydropyrimidin-1(2H)-yl)isoindoline-1,3-dione]
WEE1 substrate protein remaining % (WEE1): B (80%< substrate protein remaining % ≤100%) | IKZF1 substrate protein remaining % (IKZF1): B (80%< substrate protein remaining % ≤100%) | IKZF2 substrate protein remaining % (IKZF2): A (0% ≤ substrate protein remaining % ≤80%) | IKZF3 substrate protein remaining % (IKZF3): B (80%< substrate protein remaining % ≤100%) | CK1α substrate protein remaining % (CK1α): B (80%< substrate protein remaining % ≤100%) | GSPT1 substrate protein remaining % (GSPT1): A (0% ≤ substrate protein remaining % ≤80%)

O=C1CCN(N2C(=O)c3ccc(CN4CC=C(c5ccsc5)CC4)cc3C2=O)C(=O)N1 [GT-06435, 2-(2,4-dioxotetrahydropyrimidin-1(2H)-yl)-5-((4-(thiophen-3-yl)-3,6-dihydropyridin-1(2H)-yl)methyl)isoindoline-1,3-dione]
WEE1 substrate protein remaining % (WEE1): A (0% ≤ substrate protein remaining % ≤80%) | IKZF1 substrate protein remaining % (IKZF1): B (80%< substrate protein remaining % ≤100%) | IKZF2 substrate protein remaining % (IKZF2): A (0% ≤ substrate protein remaining % ≤80%) | IKZF3 substrate protein remaining % (IKZF3): A (0% ≤ substrate protein remaining % ≤80%) | CK1α substrate protein remaining % (CK1α): B (80%< substrate protein remaining % ≤100%) | GSPT1 substrate protein remaining % (GSPT1): A (0% ≤ substrate protein remaining % ≤80%)

O=C1CCN(N2Cc3cc(CN4CCN(c5ccc(Br)cc5)CC4)ccc3C2=O)C(=O)N1 [GT-06768, 1-(5-((4-(4-bromophenyl)piperazin-1-yl)methyl)-1-oxoisoindolin-2-yl)dihydropyrimidine-2,4(1H,3H)-dione]
WEE1 substrate protein remaining % (WEE1): A (0% ≤ substrate protein remaining % ≤80%) | IKZF1 substrate protein remaining % (IKZF1): B (80%< substrate protein remaining % ≤100%) | IKZF2 substrate protein remaining % (IKZF2): B (80%< substrate protein remaining % ≤100%) | IKZF3 substrate protein remaining % (IKZF3): A (0% ≤ substrate protein remaining % ≤80%) | CK1α substrate protein remaining % (CK1α): A (0% ≤ substrate protein remaining % ≤80%) | GSPT1 substrate protein remaining % (GSPT1): A (0% ≤ substrate protein remaining % ≤80%)

O=C1CCN(N2Cc3cc(CN4CCc5sccc5C4)ccc3C2=O)C(=O)N1 [GT-07720, 1-(5-((6,7-dihydrothieno[3,2-c]pyridin-5 (4H)-yl)methyl)-1-oxoisoindolin-2-yl)dihydropyrimidine-2,4(1H,3H)-dione]
WEE1 substrate protein remaining % (WEE1): A (0% ≤ substrate protein remaining % ≤80%) | IKZF1 substrate protein remaining % (IKZF1): A (0% ≤ substrate protein remaining % ≤80%) | IKZF2 substrate protein remaining % (IKZF2): A (0% ≤ substrate protein remaining % ≤80%) | IKZF3 substrate protein remaining % (IKZF3): A (0% ≤ substrate protein remaining % ≤80%) | CK1α substrate protein remaining % (CK1α): A (0% ≤ substrate protein remaining % ≤80%) | GSPT1 substrate protein remaining % (GSPT1): A (0% ≤ substrate protein remaining % ≤80%)

O=C1CCN(N2C(=O)c3ccc(CN4CCN(c5ccnc(Br)c5F)CC4)cc3C2=O)C(=O)N1 [GT-07167, 5-((4-(2-bromo-3-fluoropyridin-4-yl)piperazin-1-yl)methyl)-2-(2,4-dioxotetrahydropyrimidin-1(2H)-yl)isoindoline-1,3-dione]
WEE1 substrate protein remaining % (WEE1): B (80%< substrate protein remaining % ≤100%) | IKZF1 substrate protein remaining % (IKZF1): B (80%< substrate protein remaining % ≤100%) | IKZF2 substrate protein remaining % (IKZF2): A (0% ≤ substrate protein remaining % ≤80%) | IKZF3 substrate protein remaining % (IKZF3): B (80%< substrate protein remaining % ≤100%) | CK1α substrate protein remaining % (CK1α): B (80%< substrate protein remaining % ≤100%) | GSPT1 substrate protein remaining % (GSPT1): A (0% ≤ substrate protein remaining % ≤80%)

O=C1CCN(N2Cc3cc(CN4CCC(c5ncnc6sc7c(c56)CCC7)CC4)ccc3C2=O)C(=O)N1 [GT-08113, 1-(5-((4-(6,7-dihydro-5H-cyclopenta[4,5]thieno[2,3-d]pyrimidin-4-yl)piperidin-1-yl)methyl)-1-oxoisoindolin-2-yl)dihydropyrimidine-2,4(1H,3H)-dione]
WEE1 substrate protein remaining % (WEE1): B (80%< substrate protein remaining % ≤100%) | IKZF1 substrate protein remaining % (IKZF1): B (80%< substrate protein remaining % ≤100%) | IKZF2 substrate protein remaining % (IKZF2): B (80%< substrate protein remaining % ≤100%) | IKZF3 substrate protein remaining % (IKZF3): B (80%< substrate protein remaining % ≤100%) | CK1α substrate protein remaining % (CK1α): A (0% ≤ substrate protein remaining % ≤80%) | GSPT1 substrate protein remaining % (GSPT1): A (0% ≤ substrate protein remaining % ≤80%)

O=C1CCN(N2C(=O)c3ccc(CN4CC=C(c5ccoc5)CC4)cc3C2=O)C(=O)N1 [GT-07442, 2-(2,4-dioxotetrahydropyrimidin-1(2H)-yl)-5-((4-(furan-3-yl)-3,6-dihydropyridin-1(2H)-yl)methyl)isoindoline-1,3-dione]
WEE1 substrate protein remaining % (WEE1): A (0% ≤ substrate protein remaining % ≤80%) | IKZF1 substrate protein remaining % (IKZF1): B (80%< substrate protein remaining % ≤100%) | IKZF2 substrate protein remaining % (IKZF2): B (80%< substrate protein remaining % ≤100%) | IKZF3 substrate protein remaining % (IKZF3): A (0% ≤ substrate protein remaining % ≤80%) | CK1α substrate protein remaining % (CK1α): B (80%< substrate protein remaining % ≤100%) | GSPT1 substrate protein remaining % (GSPT1): A (0% ≤ substrate protein remaining % ≤80%)

O=C1CCN(N2C(=O)c3ccc(CN4CCN(c5noc6cc(F)ccc56)CC4)cc3C2=O)C(=O)N1 [GT-07524, 2-(2,4-dioxotetrahydropyrimidin-1(2H)-yl)-5-((4-(6-fluorobenzo[d]isoxazol-3-yl)piperazin-1-yl)methyl)isoindoline-1,3-dione]
WEE1 substrate protein remaining % (WEE1): A (0% ≤ substrate protein remaining % ≤80%) | IKZF1 substrate protein remaining % (IKZF1): A (0% ≤ substrate protein remaining % ≤80%) | IKZF2 substrate protein remaining % (IKZF2): A (0% ≤ substrate protein remaining % ≤80%) | IKZF3 substrate protein remaining % (IKZF3): B (80%< substrate protein remaining % ≤100%) | CK1α substrate protein remaining % (CK1α): B (80%< substrate protein remaining % ≤100%) | GSPT1 substrate protein remaining % (GSPT1): A (0% ≤ substrate protein remaining % ≤80%)
